Assay results taken from patent publication US5210193A, “Piperazine derivatives” (American Cyanamid Company, priority 1990, dated 1993).
In brackets after ≈: the same amount, converted by molar mass. One block for each compound: values may come before it.

Experiments:
[1] = test system: Klebsiella pneumoniae MOR 84-4; experiment: in vitro antibacterial MIC, agar plate dilution; assay type: cell-based; details: Klebsiella pneumoniae, MOR844, 18 h, 35° C., read-out: MIC
Protocol: (§1) The in vitro antimicrobial spectrum of the compounds of ths invention were determined by the agar plate dilution method with Mueller-Hinton agar and an inoculum of each test organism of approximately 10^4 colony forming units delivered by the Steers replicating device. The minimal inhibitory concentration (MIC) in mcg/ml is defined as the lowest concentration of test compound that inhibited visible growth after 18 hours incubation at 35° C. Results are given in Table I, with the test compounds identified by the number of their hereinafter described examples.

[2] = test system: Staphylococcus aureus ATCC 25913; experiment: in vitro antibacterial MIC, agar plate dilution; assay type: cell-based; details: ATCC25913, 18 hours, 35° C.
Protocol: as §1

[3] = test system: Pseudomonas aeruginosa VGH 84-4; experiment: in vitro antibacterial MIC, agar plate dilution; assay type: cell-based; details: Pseudomonas aeruginosa, VGH844, 18 h, 35° C., read-out: MIC
Protocol: as §1

[4] = test system: Morganella morganii VGH 84-11; experiment: in vitro antibacterial MIC, agar plate dilution; assay type: cell-based; details: VGH8411, 18 hours, 35° C., read-out: MIC
Protocol: as §1

[5] = test system: Escherichia coli CMC 84-11; experiment: in vitro antibacterial MIC, agar plate dilution; assay type: cell-based; details: Escherichia coli, CMC8411, 18 h, 35° C., read-out: MIC
Protocol: as §1

[6] = test system: Proteus rettgeri CMC 84-41; experiment: in vitro antibacterial MIC, agar plate dilution; assay type: cell-based; details: Providencia rettgeri, CMC8441, 18 h, 35° C., read-out: MIC
Protocol: as §1

[7] = test system: Escherichia coli ATCC 25922; experiment: in vitro antibacterial MIC, agar plate dilution; assay type: cell-based; details: Escherichia coli, ATCC25922, 18 h, 35° C., read-out: MIC
Protocol: as §1

[8] = test system: Enterobacter aerogenes VGH 84-36; experiment: in vitro antibacterial MIC, agar plate dilution; assay type: cell-based; details: Klebsiella aerogenes, VGH8436, 18 hours, 35° C., read-out: MIC
Protocol: as §1

[9] = test system: Enterobacter cloacae VGH 84-37; experiment: in vitro antibacterial MIC, agar plate dilution; assay type: cell-based; details: Enterobacter cloacae, VGH8437, 18 h, 35° C., read-out: MIC
Protocol: as §1

Klebsiella pneumoniae AD [10] = experiment: in vitro antibacterial MIC, agar plate dilution; assay type: cell-based; details: Klebsiella pneumoniae, 18 h, 35° C., read-out: MIC
Protocol: as §1

[11] = test system: Staphylococcus aureus Smith; experiment: in vitro antibacterial MIC, agar plate dilution; assay type: cell-based; details: Staphylococcus aureus, 18 h, 35° C., read-out: MIC
Protocol: as §1

Klebsiella pneumoniae AD [12] = experiment: in vivo antibacterial activity, survival of infected mice (Table II); design: species or system Charles River CD-1 mice; details: subcutaneous
Protocol: Charles River CD-1 mice were infected with either Klebsiella pneumoniae AD or Staphylococcus aureus Smith. A single subcutaneous dose of the test compound was administered 1/2 hour after infection. […] The results appear in Tables II and III, wherein the representative test compounds are identified by the number of their hereinafter described examples.

Compound: Clc1ccc2oc(C3CNCCN3)cc2c1 (centres unmarked) [Example 17, 2-(5-Chloro-2-benzofuranyl)piperazine]
- Survival Ratio 7 Days After Infection (Klebsiella pneumoniae AD [12]; 0.25 mg/kg single dose): 0/5
- Survival Ratio 7 Days After Infection (Klebsiella pneumoniae AD [12]; 0.5 mg/kg single dose): 0/5
- Survival Ratio 7 Days After Infection (Klebsiella pneumoniae AD [12]; 1 mg/kg single dose): 0/5
- Survival Ratio 7 Days After Infection (Klebsiella pneumoniae AD [12]; 2 mg/kg single dose): 0/5
- Survival Ratio 7 Days After Infection (Klebsiella pneumoniae AD [12]; 4 mg/kg single dose): 1/5
- Survival Ratio 7 Days After Infection (Klebsiella pneumoniae AD [12]; 8 mg/kg single dose): 5/5
- Survival Ratio 7 Days After Infection (Klebsiella pneumoniae AD [12]; 16 mg/kg single dose): 5/5

Compound: CCn1cc(C(=O)O)c(=O)c2cc(F)c(N3CCNC(CN(C)C)C3)cc21 (centres unmarked) [Example 2, 7-[3-[(Dimethylamino)methyl]-1-piperazinyl]-1-ethyl-6-fluoro-1,4-dihvdro-4-oxo-3-quinolinecarboxylic acid]
- MIC [1]: 4 µg/mL (≈ 10.6 µM)
- MIC [2]: 2 µg/mL (≈ 5.31 µM)
- MIC [3]: 16 µg/mL (≈ 42.5 µM)
- MIC [4]: 2 µg/mL (≈ 5.31 µM)
- MIC [5]: 2 µg/mL (≈ 5.31 µM)
- MIC [6]: 2 µg/mL (≈ 5.31 µM)
- MIC [7]: 2 µg/mL (≈ 5.31 µM)
- MIC [8]: 4 µg/mL (≈ 10.6 µM)
- MIC [9]: 1 µg/mL (≈ 2.66 µM)
- MIC (Klebsiella pneumoniae AD [10]): 2 µg/mL (≈ 5.31 µM)
- MIC [11]: 0.5 µg/mL (≈ 1.33 µM)

Compound: CCn1cc(C(=O)O)c(=O)c2cc(F)c(N3CCN(C)C(COC)C3)cc21 (centres unmarked) [Example 10, 1-Ethyl-6-fluoro-1,4-dihydro-7-[3-(methoxymethyl)-4-methyl-1-piperazinyl]-4-oxo-3-quinolinecarboxylic acid]
- MIC [1]: 2 µg/mL (≈ 5.3 µM)
- MIC [2]: 2 µg/mL (≈ 5.3 µM)
- MIC [3]: 32 µg/mL (≈ 84.8 µM)
- MIC [4]: 2 µg/mL (≈ 5.3 µM)
- MIC [5]: 1 µg/mL (≈ 2.65 µM)
- MIC [6]: 0.5 µg/mL (≈ 1.32 µM)
- MIC [7]: 2 µg/mL (≈ 5.3 µM)
- MIC [8]: 2 µg/mL (≈ 5.3 µM)
- MIC [9]: 1 µg/mL (≈ 2.65 µM)
- MIC (Klebsiella pneumoniae AD [10]): 1 µg/mL (≈ 2.65 µM)
- MIC [11]: 1 µg/mL (≈ 2.65 µM)

Compound: CN(C)CC1CNCCN1 (centres unmarked) [Example 1, N,N-Dimethyl-2-piperazinemethanamine]
- Survival Ratio 7 Days After Infection (Klebsiella pneumoniae AD [12]; 0.25 mg/kg single dose): 0/5
- Survival Ratio 7 Days After Infection (Klebsiella pneumoniae AD [12]; 1 mg/kg single dose): 0/5
- Survival Ratio 7 Days After Infection (Klebsiella pneumoniae AD [12]; 4 mg/kg single dose): 1/5
- Survival Ratio 7 Days After Infection (Klebsiella pneumoniae AD [12]; 16 mg/kg single dose): 5/5

Compound: CCn1cc(C(=O)O)c(=O)c2cc(F)c(N3CCNC(COc4ccccc4)C3)cc21 (centres unmarked) [Example 9, 1-Ethyl-6-fluoro-1,4-dihydro-4-oxo-7-[3-(phenoxy-methyl]-1-piperazinyl]-3-quinolinecarboxylic acid]
- MIC [1]: 0.5 µg/mL (≈ 1.18 µM)
- MIC [2]: 0.5 µg/mL (≈ 1.18 µM)
- MIC [3]: 8 µg/mL (≈ 18.8 µM)
- MIC [4]: 0.5 µg/mL (≈ 1.18 µM)
- MIC [5]: 0.5 µg/mL (≈ 1.18 µM)
- MIC [6]: 0.5 µg/mL (≈ 1.18 µM)
- MIC [7]: 0.5 µg/mL (≈ 1.18 µM)
- MIC [8]: 1 µg/mL (≈ 2.35 µM)
- MIC [9]: 0.25 µg/mL (≈ 0.588 µM)
- MIC (Klebsiella pneumoniae AD [10]): 0.5 µg/mL (≈ 1.18 µM)
- MIC [11]: ≤ 0.12 µg/mL

Further lines, results first:

- MIC [1]: 1 µg/mL (≈ 2.49 µM)
- MIC [2]: 0.5 µg/mL (≈ 1.25 µM)
- MIC [3]: 16 µg/mL (≈ 39.9 µM)
- MIC [4]: 0.5 µg/mL (≈ 1.25 µM)
- MIC [5]: 0.5 µg/mL (≈ 1.25 µM)
- MIC [6]: 1 µg/mL (≈ 2.49 µM)
- MIC [7]: 1 µg/mL (≈ 2.49 µM)
- MIC [8]: 2 µg/mL (≈ 4.98 µM)
- MIC [9]: 0.5 µg/mL (≈ 1.25 µM)
- MIC (Klebsiella pneumoniae AD [10]): 1 µg/mL (≈ 2.49 µM)
- MIC [11]: 0.25 µg/mL (≈ 0.623 µM)
Compound: CCn1cc(C(=O)O)c(=O)c2cc(F)c(N3CCNC(c4cccs4)C3)cc21 (centres unmarked) [Example 26, 1-Ethyl-6-fluoro-1,4-dihydro-4-oxo-7-[3-(2-thienyl)-1-piperazinyl]-3-auinolinecarboxylic acid]

- MIC [1]: 8 µg/mL (≈ 18.2 µM)
- MIC [2]: 2 µg/mL (≈ 4.55 µM)
- MIC [3]: 64 µg/mL (≈ 146 µM)
- MIC [4]: 4 µg/mL (≈ 9.1 µM)
- MIC [5]: 2 µg/mL (≈ 4.55 µM)
- MIC [6]: 2 µg/mL (≈ 4.55 µM)
- MIC [7]: 4 µg/mL (≈ 9.1 µM)
- MIC [8]: 8 µg/mL (≈ 18.2 µM)
- MIC [9]: 4 µg/mL (≈ 9.1 µM)
- MIC (Klebsiella pneumoniae AD [10]): 4 µg/mL (≈ 9.1 µM)
- MIC [11]: 1 µg/mL (≈ 2.28 µM)
Compound: CCn1cc(C(=O)O)c(=O)c2cc(F)c(N3CCN(C)C(COc4ccccc4)C3)cc21 (centres unmarked) [Example 11, 1-Ethyl-6-fluoro-1,4-dihydro-7-[4-methyl-3-(phenoxy-methyl)-1-piperazinyl]-4-oxo-3-quinolinecarboxylic acid]

- MIC [1]: 8 µg/mL (≈ 19.3 µM)
- MIC [2]: 1 µg/mL (≈ 2.41 µM)
- MIC [3]: 32 µg/mL (≈ 77 µM)
- MIC [4]: 8 µg/mL (≈ 19.3 µM)
- MIC [5]: 4 µg/mL (≈ 9.63 µM)
- MIC [6]: 8 µg/mL (≈ 19.3 µM)
- MIC [7]: 4 µg/mL (≈ 9.63 µM)
- MIC [8]: 16 µg/mL (≈ 38.5 µM)
- MIC [9]: 4 µg/mL (≈ 9.63 µM)
- MIC (Klebsiella pneumoniae AD [10]): 4 µg/mL (≈ 9.63 µM)
- MIC [11]: 0.25 µg/mL (≈ 0.602 µM)
Compound: CCn1cc(C(=O)O)c(=O)c2cc(F)c(N3CCN(C)C(c4cccs4)C3)cc21 (centres unmarked) [Example 31, 1-Ethyl-6-fluoro-1,4-dihydro-7-[4-methyl-3-(2-thienyl)piperazinyl]-4-oxo-3-quinolinecarboxylic acid]
